{"source": "ChEMBL document CHEMBL1124105", "about": "“Analogues of gamma-hydroxybutyric acid. Synthesis and binding studies” (J Med Chem, 1988)", "note": "Active and inactive are the calls of the source. The calls are words filed in the database; no cut-off is given here."}
{"target": "T1, Gamma-hydroxybutyrate receptor (Rattus norvegicus) (UniProt Q6RY99)", "T1 sequence (whole entry)": "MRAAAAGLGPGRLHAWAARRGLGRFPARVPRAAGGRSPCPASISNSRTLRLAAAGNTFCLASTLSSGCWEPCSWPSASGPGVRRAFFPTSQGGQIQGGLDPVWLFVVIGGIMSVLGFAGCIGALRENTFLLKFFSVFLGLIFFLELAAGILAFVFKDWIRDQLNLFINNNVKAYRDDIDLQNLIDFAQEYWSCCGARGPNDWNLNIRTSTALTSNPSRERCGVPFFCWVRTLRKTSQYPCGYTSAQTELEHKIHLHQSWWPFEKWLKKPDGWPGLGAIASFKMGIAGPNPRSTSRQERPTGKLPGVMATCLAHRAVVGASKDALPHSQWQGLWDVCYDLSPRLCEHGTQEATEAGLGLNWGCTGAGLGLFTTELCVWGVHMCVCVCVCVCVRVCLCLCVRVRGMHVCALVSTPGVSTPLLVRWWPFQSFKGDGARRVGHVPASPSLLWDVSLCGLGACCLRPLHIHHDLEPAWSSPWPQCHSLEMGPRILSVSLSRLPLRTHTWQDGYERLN", "settings": "at 1 µM", "units": {"inhibition": "%"}}
{"compound": "O=C(O)/C=C/C(O)C1CCCCC1", "note": "(configuration not stated)", "inhibition": 13}
{"compound": "O=C(O)/C=C/C(O)c1ccccc1", "note": "(configuration not stated)", "inhibition": 39}
{"compound": "O=C(O)/C=C/CO", "inhibition": 44}
{"compound": "O=C(O)CCCCO", "inhibition": 22}
{"compound": "CC(O)CCC(=O)O", "note": "(configuration not stated)", "inhibition": 12}
{"compound": "C/C(=C\\C(=O)O)CO", "inhibition": 11}
{"compound": "O=C(O)CCC(O)c1ccccc1", "note": "(configuration not stated)", "inhibition": 13}
{"compound": "O=C(O)CCCO", "inhibition": 35}
{"compound": "O=C(O)/C=C(/CO)c1ccccc1", "inhibition": 21}
{"target": "T1, Gamma-hydroxybutyrate receptor (Rattus norvegicus)", "settings": "at 10 µM"}
{"compound": "O=C(O)CC(CO)c1ccccc1", "note": "(configuration not stated)", "inhibition": "inactive"}
{"compound": "OCCCCO", "inhibition": "inactive"}
{"compound": "C=C(C)[C@@H]1[C@H]2OC(=O)[C@@H]1[C@]1(O)C[C@H]3OC34C(=O)O[C@H]2[C@@]41C.CC(C)(O)[C@@H]1[C@H]2OC(=O)[C@@H]1[C@]1(O)C[C@H]3OC34C(=O)O[C@H]2[C@@]41C", "note": "(some centres not stated)", "inhibition": "inactive"}
{"compound": "O=C(O)CCO", "inhibition": "inactive"}
{"compound": "CC(CO)C(C)C(=O)O", "note": "(configuration not stated)", "inhibition": "inactive"}
{"compound": "O=C1C=CCO1", "inhibition": "inactive"}
{"compound": "O=C(O)C(CCO)c1ccccc1", "note": "(configuration not stated)", "inhibition": "inactive"}
{"compound": "O=C(O)CC(CO)Cc1ccccc1", "note": "(configuration not stated)", "inhibition": "inactive"}
{"compound": "O=S(=O)(O)CCCCO", "inhibition": "inactive"}
{"compound": "O=S(=O)([O-])CCO.[Na+]", "inhibition": "inactive"}
{"compound": "CC(C)C(CO)CC(=O)O", "note": "(configuration not stated)", "inhibition": "inactive"}
{"compound": "C/C(=C\\C(=O)O)CO", "inhibition": "inactive"}
{"compound": "O=S(=O)(O)CCCO", "inhibition": "inactive"}
{"compound": "O=C1CCCO1", "inhibition": "inactive"}
{"compound": "NCCCC(=O)O", "inhibition": "inactive"}
{"target": "T1, Gamma-hydroxybutyrate receptor (Rattus norvegicus)", "settings": "at 10 µM", "remark": "another data set of the same source", "units": {"inhibition": "%"}}
{"compound": "CCC(CO)CC(=O)O", "note": "(configuration not stated)", "inhibition": 43}
{"compound": "CC(CO)CC(=O)O", "note": "(configuration not stated)", "inhibition": 59}
{"compound": "O=C(O)/C=C/C(O)C1CCCCC1", "note": "(configuration not stated)", "inhibition": 46}
{"compound": "O=C(O)/C=C/C(O)c1ccccc1", "note": "(configuration not stated)", "inhibition": 70}
{"compound": "CC(CCO)C(=O)O", "note": "(configuration not stated)", "inhibition": 24}
{"compound": "O=C(O)/C=C/CO", "inhibition": 64}
{"compound": "O=C(O)CCCCO", "inhibition": 53}
{"compound": "CC(O)CCC(=O)O", "note": "(configuration not stated)", "inhibition": 63}
{"compound": "C/C(=C\\C(=O)O)CO", "inhibition": 55}
{"compound": "CCCC(CO)CC(=O)O", "note": "(configuration not stated)", "inhibition": 5}
{"compound": "O=C(O)CCC(O)c1ccccc1", "note": "(configuration not stated)", "inhibition": 56}
{"compound": "O=C(O)CCCO", "inhibition": 55}
{"compound": "O=C(O)/C=C(/CO)c1ccccc1", "inhibition": 34}
